Measured values reported in patent US8791132B2, “Compounds and methods for treatment of hypertension” (Medivation Technologies, Inc., priority 2011, dated 2014).
Where two headings read alike, the source gives them in different places.

Columns and labels:
[1] = target: T1, human recombinant adrenergic α2B receptor (Homo sapiens, UniProt P18089); assay: Radioligand binding, adrenergic α2B ([3H]Rauwolscine); details: for Percentage inhibition of ligand binding, Adrenergic α2B (0.03 μM) / inhibition at 0.03 µM / Percentage inhibition of ligand binding, Adrenergic α2B: [3H]Rauwolscine; for Ki: read-out: Ki α2B
T1 construct: expressed in transfected cells; host or cells: CHO-K1
T1 sequence (P18089 1-450): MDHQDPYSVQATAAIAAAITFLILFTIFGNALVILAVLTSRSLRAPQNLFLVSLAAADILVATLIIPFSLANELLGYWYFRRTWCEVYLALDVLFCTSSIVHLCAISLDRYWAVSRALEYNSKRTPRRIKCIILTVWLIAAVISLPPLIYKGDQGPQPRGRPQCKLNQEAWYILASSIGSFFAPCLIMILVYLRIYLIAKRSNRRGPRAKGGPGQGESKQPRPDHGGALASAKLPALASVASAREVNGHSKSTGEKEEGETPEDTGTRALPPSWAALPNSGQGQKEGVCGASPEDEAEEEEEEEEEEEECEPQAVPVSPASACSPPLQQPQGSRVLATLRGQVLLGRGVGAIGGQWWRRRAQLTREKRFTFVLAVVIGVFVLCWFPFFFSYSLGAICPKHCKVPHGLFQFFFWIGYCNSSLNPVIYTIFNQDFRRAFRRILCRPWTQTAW
In short: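 Receptor expressed in CHO-K1 cells, assayed in 50 mM Tris-HCl pH 7.4 with 12.5 mM MgCl2, 1 mM EDTA and 0.2% BSA. Compounds were incubated with 2.5 nM [3H]Rauwolscine for 60 min at 25° C; 10 μM Prazosin defined non-specific binding. Filter counting gave percent inhibition of specific binding.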

[2] = target: T2, rat adrenergic α1B receptor (Rattus norvegicus, UniProt P15823); assay: Radioligand binding, adrenergic α1B ([3H]Prazosin); details: [3H]Prazosin; for Percentage inhibition of ligand binding, Adrenergic α1B (0.1 μM) / Percentage inhibition of ligand binding, Adrenergic α1B: 0.1 µM
T2 construct: rat adrenergic α1B receptor obtained from Wistar Rat liver; from tissue; host or cells: Wistar rat liver
T2 sequence (P15823 1-515): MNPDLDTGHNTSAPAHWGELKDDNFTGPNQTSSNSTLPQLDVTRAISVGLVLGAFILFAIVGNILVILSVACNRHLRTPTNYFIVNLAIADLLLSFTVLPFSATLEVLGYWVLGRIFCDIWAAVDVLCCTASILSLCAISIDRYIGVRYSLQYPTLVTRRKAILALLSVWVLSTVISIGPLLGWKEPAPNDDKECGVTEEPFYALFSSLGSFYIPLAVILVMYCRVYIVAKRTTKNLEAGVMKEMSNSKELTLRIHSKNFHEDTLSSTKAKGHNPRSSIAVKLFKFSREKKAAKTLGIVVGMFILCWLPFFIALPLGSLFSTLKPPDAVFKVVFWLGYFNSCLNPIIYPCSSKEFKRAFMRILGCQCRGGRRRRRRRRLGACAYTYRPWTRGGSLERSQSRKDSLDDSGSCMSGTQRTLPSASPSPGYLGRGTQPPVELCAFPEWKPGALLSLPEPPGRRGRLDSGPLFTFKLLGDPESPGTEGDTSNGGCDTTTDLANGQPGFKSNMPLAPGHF
In short: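 Rat α1B receptor from Wistar rat liver was incubated with 0.25 nM [3H]prazosin for 60 min at 25 °C in 50 mM Tris-HCl, pH 7.4, 0.5 mM EDTA. Non-specific binding was defined with 10 μM phentolamine. Bound radioligand was measured by filtration and counting, reported as percent inhibition of specific binding.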

[3] = target: T3, human recombinant adrenergic α2A receptor (Homo sapiens, UniProt P08913); assay: Radioligand binding, adrenergic α2A ([3H]MK-912); details: for Percentage inhibition of ligand binding, Adrenergic α2A (0.1 μM) / Percentage inhibition of ligand binding, Adrenergic α2A: 0.1 µM
T3 construct: expressed in transfected cells; host or cells: insect Sf9 cells
T3 sequence (P08913 1-465): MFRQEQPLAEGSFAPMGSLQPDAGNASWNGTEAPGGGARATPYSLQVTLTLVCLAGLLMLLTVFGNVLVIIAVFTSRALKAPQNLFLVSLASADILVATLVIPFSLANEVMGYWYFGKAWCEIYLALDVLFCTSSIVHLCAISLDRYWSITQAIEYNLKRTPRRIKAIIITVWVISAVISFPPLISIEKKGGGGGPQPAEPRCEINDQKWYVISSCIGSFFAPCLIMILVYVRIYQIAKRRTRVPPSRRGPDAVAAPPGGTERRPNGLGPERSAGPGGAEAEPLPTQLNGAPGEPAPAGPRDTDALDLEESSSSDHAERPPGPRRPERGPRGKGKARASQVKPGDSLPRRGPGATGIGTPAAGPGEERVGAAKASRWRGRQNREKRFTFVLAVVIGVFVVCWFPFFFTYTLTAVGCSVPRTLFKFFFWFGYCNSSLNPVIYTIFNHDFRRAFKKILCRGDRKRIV
In short: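 Receptor expressed in Sf9 cells, in 50 mM Tris-HCl pH 7.4, 12.5 mM MgCl2, 2 mM EDTA; compounds incubated with 1 nM [3H]MK-912 for 60 min at 25 °C.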

[4] = compound at 0.03 μM, repeat datapoints each shown, 0.03 µM
[5] = compound at 0.1 μM, repeat datapoints each shown
[6] = compound at 0.1 μM, [3H]MK-912, repeat datapoints each shown
[7] = read-out: Percentage inhibition of ligand binding, Adrenergic α2B (0.03 μM), compound at 0.03 μM, repeat datapoints each shown
[8] = read-out: Percentage inhibition of ligand binding, Adrenergic α1B (0.1 μM), compound at 0.1 μM, repeat datapoints each shown
[9] = read-out: Percentage inhibition of ligand binding, Adrenergic α2A (0.1 μM), compound at 0.1 μM, [3H]MK-912, repeat datapoints each shown
[10] = compound at 0.03 μM, repeat assays, each datapoint shown, 0.03 µM
[11] = compound at 0.1 μM, repeat assays, each datapoint shown
[12] = compound at 0.1 μM, [3H]MK-912, repeat assays, each datapoint shown
[13] = compound at 0.03 μM, repeat assays, each datapoint shown, read-out: Percentage inhibition of ligand binding, Adrenergic α2B
[14] = compound at 0.1 μM, repeat assays, each datapoint shown, read-out: Percentage inhibition of ligand binding, Adrenergic α1B
[15] = compound at 0.1 μM, [3H]MK-912, repeat assays, each datapoint shown, read-out: Percentage inhibition of ligand binding, Adrenergic α2A

Percentage inhibition of ligand binding, Adrenergic α1B (0.1 μM) [2, 5] [%]	Percentage inhibition of ligand binding, Adrenergic α2A (0.1 μM) [3, 6] [%]	inhibition at 0.03 µM [1, 7] [%]	inhibition at 0.1 µM [2, 8] [%]	inhibition at 0.1 µM [3, 9] [%]	SMILES	further results
68	22	–	–	–	Cc1ccc2c(c1)c1c(n2CC(O)c2cc[nH]c(=O)c2)CCN2CCCC12 (single isomer, unassigned) [II-132b, 4-(2-(2,3,5,6-tetrahydro-10-methyl-1H-indolizino[7,8-b]indol-7(11cH)-yl)-1-hydroxyethyl)pyridin-2(1H)-one]	Percentage inhibition of ligand binding, Adrenergic α2B (0.03 μM) [1, 4]: 70%
–	65	101	99	–	Cc1ccc2c(c1)c1c(n2CC(O)c2ccc(F)cc2)CCN2CCCC12 (single isomer, unassigned) [II-120a, 1-(4-fluoro-phenyl)-2-(9-methyl-1,2,3,4,5,10c-hexahydro-3a,6-diaza-cyclopenta[c]fluoren-6-yl)-ethanol]	–
64	71	–	–	–	Cc1cc(C)c2c(c1)c1c(n2CC(O)c2ccncc2)CCN2CCCC12 (single isomer, unassigned) [II-125d, 2-(8,10-dimethyl-2,3,5,6-tetrahydro-1H-indolizino[7,8-b]indol-7(11cH)-yl)-1-(pyridin-4-yl)ethanol]	Percentage inhibition of ligand binding, Adrenergic α2B (0.03 μM) [1, 4]: 88%
7	−5	–	–	–	Cc1cnc2c(c1)c1c(n2CC(O)c2ccc(C#N)nc2)CCN(C)C1 (single isomer, unassigned) [II-114b, 5-[2-(3,6-dimethyl-5,6,7,8-tetrahydro-1,6,9-triaza-fluoren-9-yl)-1-hydroxy-ethyl]-pyridine-2-carbonitrile]	Percentage inhibition of ligand binding, Adrenergic α2B (0.03 μM) ([1]; compound at 0.03 μM, repeat datapoints each shown): 40%
–	–	42	27	4	Cc1cnc2c(c1)c1c(n2CCc2cccnc2)CCN2CCCC12 (stereo not shown) [134a, 9-methyl-6-(2-pyridin-3-yl-ethyl)-2,3,4,5,6,10c-hexahydro-1H-3a,6,7-triaza-cyclopenta[c]fluorene]	–
–	–	–	–	–	Cc1ccc2c(c1)c1c(n2CC(C)(O)c2ccc[n+]([O-])c2)CCN(C)C1 (single isomer, unassigned) [56b]	Percentage inhibition of ligand binding, Adrenergic α2B [1, 10]: 28%; Percentage inhibition of ligand binding, Adrenergic α1B [2, 11]: 6%; Percentage inhibition of ligand binding, Adrenergic α2A [3, 12]: 17%
–	–	–	–	–	OC(Cn1c2c(c3cccnc31)CN1CCCC1C2)c1ccncc1 (single isomer, unassigned) [37a]	Percentage inhibition of ligand binding, Adrenergic α2B [1, 10]: 2%; Percentage inhibition of ligand binding, Adrenergic α1B [2, 11]: −5%; Percentage inhibition of ligand binding, Adrenergic α2A [3, 12]: 18%
68	–	98	–	62	Cc1ccc2c(c1)c1c(n2CC(N=[N+]=[N-])c2ccc(F)cc2F)CCN(C)CC1 (single isomer, unassigned) [V-21a, 6-(2-azido-2-(2,4-difluorophenyl)ethyl)-3,9-dimethyl-1,2,3,4,5,6-hexahydroazepino[4,5-b]indole]	–
–	–	27	54	10	Cc1ccc2c(c1)c1c(n2C(C)(C)C(O)c2ccccc2)CCN(C)C1 (stereo not shown) [II-187]	–
95	29	102	93	23	Cc1cnc2c(c1)c1c(n2CCc2cccnc2)CCN2CCCC12 (single isomer, unassigned) [134b, 9-methyl-6-(2-pyridin-3-yl-ethyl)-2,3,4,5,6,10c-hexahydro-1H-3a,6,7-triaza-cyclopenta[c]fluorene]	Percentage inhibition of ligand binding, Adrenergic α2B (0.03 μM) [1, 4]: 103%; Ki [1]: 0.43 nM; inhibition at 0.03 µM ([2]; read-out: Percentage inhibition of ligand binding, Adrenergic α1B (0.03 μM), compound at 0.03 μM, repeat datapoints each shown): 78%; Ki [3]: 102 nM
–	–	–	–	–	CCOC(=O)N1CCc2c(c3cc(C)ccc3n2CC(O)c2ccncc2)C1 (stereo not shown) [compound 72, ethyl 3,4-dihydro-5-(2-hydroxy-2-(pyridin-4-yl)ethyl)-8-methyl-1H-pyrido[4,3-b]indole-2(5H)-carboxylate]	inhibition at 0.03 µM [1, 13]: 12%; inhibition at 0.1 µM [2, 14]: 6%; inhibition at 0.1 µM [3, 15]: -2%
–	–	–	11	15	CNC(Cn1c2c(c3cc(C)ccc31)CN(C)CC2)c1ccncc1 (single isomer, unassigned) [151a, 2-(1,2,3,4-tetrahydro-2,8-dimethylpyrido[4,3-b]indol-5-yl)-N-methyl-1-(pyridin-4-yl)ethanamine]	Percentage inhibition of ligand binding, Adrenergic α2B (0.03 μM) [1, 4]: 93%
–	–	–	–	–	CN1CCc2c(c3cc(Cl)ccc3n2CC(O)c2cccnc2)C1 (single isomer, unassigned) [7a]	Percentage inhibition of ligand binding, Adrenergic α2B [1, 10]: 59%; Percentage inhibition of ligand binding, Adrenergic α1B [2, 11]: 28%; Percentage inhibition of ligand binding, Adrenergic α2A [3, 12]: 1%
–	–	–	–	–	Cc1ccc2c(c1)c1c(n2CC(O)c2ccc(F)cc2)CCN(C)C1 (single isomer, unassigned) [30b]	Percentage inhibition of ligand binding, Adrenergic α2B [1, 10]: 102%; inhibition at 0.03 µM [1, 13]: 100%; Ki [1]: 1.13 nM; inhibition at 0.03 µM ([2]; compound at 0.03 μM, repeat assays, each datapoint shown, read-out: Percentage inhibition of ligand binding, Adrenergic α1B): 68%; Percentage inhibition of ligand binding, Adrenergic α1B [2, 11]: 91%; inhibition at 0.1 µM [2, 14]: 89%; Ki [3]: 14.2 nM; inhibition at 0.03 µM ([3]; compound at 0.03 μM, [3H]MK-912, repeat assays, each datapoint shown, read-out: Percentage inhibition of ligand binding, Adrenergic α2A): 42%; Percentage inhibition of ligand binding, Adrenergic α2A [3, 12]: 75%; inhibition at 0.1 µM [3, 15]: 74%
–	–	20	2	15	Cc1ccc2c(c1)c1c(n2CC(C)(O)c2ccc(C(=O)O)nc2)CCN(C)C1 (stereo not shown) [compound 169, 5-(1-(1,2,3,4-tetrahydro-2,8-dimethylpyrido[4,3-b]indol-5-yl)-2-hydroxypropan-2-yl)pyridine-2-carboxylic acid]	–
–	–	17	17	6	Cc1ccc2c(c1)c1c(n2CC(N)c2ccncc2)CN(C)CC1 (stereo not shown) [compound 153, 2-(2,6-dimethyl-3,4-dihydro-1H-pyrido[3,4-b]indol-9(2H)-yl)-1-(pyridin-4-yl)ethanamine]	–
